Assays:
[1] = target: T1, Steroid 17-alpha-hydroxylase/17,20 lyase (Homo sapiens, UniProt P05093); assay: Inhibition of CYP17 in human testicular microsomes using 17alpha-hydroxypregnenolone as substrate assessed as decrease in DHEA levels after 90 mins by ELISA; parameters: species or system Testis
T1 sequence (P05093 whole entry): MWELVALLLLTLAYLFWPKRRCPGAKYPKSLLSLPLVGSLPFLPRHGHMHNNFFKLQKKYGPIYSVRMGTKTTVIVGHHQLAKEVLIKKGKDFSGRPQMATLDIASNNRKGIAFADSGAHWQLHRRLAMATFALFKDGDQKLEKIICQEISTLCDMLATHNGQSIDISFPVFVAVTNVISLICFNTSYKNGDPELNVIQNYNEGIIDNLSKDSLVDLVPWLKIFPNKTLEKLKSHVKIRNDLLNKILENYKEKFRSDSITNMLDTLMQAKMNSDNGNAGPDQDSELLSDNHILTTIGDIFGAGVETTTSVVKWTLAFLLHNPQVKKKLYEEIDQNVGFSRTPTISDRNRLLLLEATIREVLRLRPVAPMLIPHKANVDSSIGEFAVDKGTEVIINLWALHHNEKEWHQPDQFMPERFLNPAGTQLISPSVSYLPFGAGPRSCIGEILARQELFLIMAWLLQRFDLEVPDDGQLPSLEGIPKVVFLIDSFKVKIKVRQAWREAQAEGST

[2] = Half life in human liver microsomes at 1 uM by LC-MS/MS analysis
[3] = target: T2, CYP21 (steroid 21-hydroxylase) (Homo sapiens, UniProt P08686); assay: Inhibition of human CYP21 transfected in HEK293 cells assessed as decrease in conversion of progesterone to 11-deoxycorticosterone preincubated for 5 hrs followed by progesterone addition measured after 20 hrs by ELISA; type: cell-based; parameters: concentration or dose not given beside the values; conditions: HEK293 cells transfected with human CYP21, probe progesterone
T2 sequence (P08686 whole entry): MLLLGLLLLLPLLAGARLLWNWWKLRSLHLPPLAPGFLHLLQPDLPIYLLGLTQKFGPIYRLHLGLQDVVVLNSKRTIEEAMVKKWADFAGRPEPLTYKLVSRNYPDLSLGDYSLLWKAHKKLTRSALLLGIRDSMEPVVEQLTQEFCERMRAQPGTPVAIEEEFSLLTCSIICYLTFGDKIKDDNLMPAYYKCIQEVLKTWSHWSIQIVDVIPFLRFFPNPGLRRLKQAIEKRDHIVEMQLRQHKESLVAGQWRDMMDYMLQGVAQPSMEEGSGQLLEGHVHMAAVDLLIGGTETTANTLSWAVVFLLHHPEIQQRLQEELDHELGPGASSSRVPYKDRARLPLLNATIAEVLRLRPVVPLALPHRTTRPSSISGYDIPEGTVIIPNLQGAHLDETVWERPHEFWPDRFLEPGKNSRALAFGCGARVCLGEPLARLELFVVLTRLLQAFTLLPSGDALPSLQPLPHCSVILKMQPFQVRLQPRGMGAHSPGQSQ

Structure (SMILES)	IC50 [1]	half-life at 1 µM [2]	inhibition at 20 h [3]
C[C@]12CC[C@H]3[C@@H](CC(F)[C@]4(O)C[C@@H](O)CC[C@]34C)[C@@H]1CC=C2c1cccnc1 (some centres not stated)	≤ 11 nM	1 to 50 min	≥ 50%
C[C@]12CC[C@H](O)CC1=CC[C@@H]1[C@@H]2CC[C@]2(C)C(c3cncc(Cl)c3)=CC[C@@H]12	≤ 11 nM	1 to 50 min	≥ 50%
CC1C[C@H]2[C@@H]3CC=C(c4cccnc4)[C@@]3(C)CC[C@@H]2[C@@]2(C)CC[C@H](O)CC12O (some centres not stated)	≤ 11 nM	–	≥ 50%
C[C@]12CCC(=O)CC1C(=O)C[C@@H]1[C@@H]2CC[C@]2(C)C(c3cncc(F)c3)=CC[C@@H]12 (some centres not stated)	≤ 11 nM	–	≥ 50%
CC(=O)N[C@@H]1CC[C@@]2(C)C(CC[C@H]3C4=CC=C(c5cccnc5)[C@@]4(C)CC[C@@H]32)C1 (some centres not stated)	–	1 to 50 min	≥ 50%
CC(=O)N[C@@H]1CC[C@@]2(C)C(=CC[C@@H]3[C@@H]2CC[C@]2(C)C(c4cncc(F)c4)=CC[C@@H]32)C1	≤ 11 nM	1 to 50 min	≥ 50%
COc1cncc(C2=CC[C@H]3[C@@H]4CC=C5C[C@H](NC(=O)C6CC6)CC[C@]5(C)[C@H]4CC[C@]23C)c1	≤ 11 nM	1 to 50 min	≥ 50%
CCCC(=O)N[C@@H]1CC[C@@]2(C)C(=CC[C@@H]3[C@@H]2CC[C@]2(C)C(c4cccnc4)=CC[C@@H]32)C1	≤ 11 nM	1 to 50 min	≥ 50%
C[C@]1(O)CC[C@@]2(C)C(CC[C@H]3C4=CC=C(c5cccnc5)[C@@]4(C)CC[C@@H]32)C1 (some centres not stated)	≤ 11 nM	1 to 50 min	10 to 50%
C[C@]12CC[C@H]3[C@@H](CC(F)C4(O)CC(=O)CC[C@]34C)[C@@H]1CC=C2c1cncc(F)c1 (some centres not stated)	≤ 11 nM	–	≥ 50%
C[C@]12CC[C@@H](NC(=O)C3CCC3)CC1=CC[C@@H]1[C@@H]2CC[C@]2(C)C(n3ccnc3)=CC[C@@H]12	≤ 11 nM	1 to 50 min	≥ 50%
C[C@]12CC[C@H]3[C@@H](CC=C4C[C@H](O)CC[C@@]43C)C1=CC=C2c1cccnc1	≤ 11 nM	1 to 50 min	≥ 50%
C[C@]12CC[C@H](O)CC1=CC[C@@H]1[C@@H]2CC[C@]2(C)C(c3cncc(N)c3)=CC[C@@H]12	≤ 11 nM	≥ 50 min	≥ 50%
C[C@]12CCC(=O)C(O)=C1C=C[C@@H]1[C@@H]2CC[C@]2(C)C(c3cccnc3)=CC[C@@H]12	–	1 to 50 min	≥ 50%
C[C@]12CC[C@H]3[C@@H](CC(F)C4(O)CC(=O)CC[C@]34C)[C@@H]1CC=C2c1cccnc1 (some centres not stated)	≤ 11 nM	–	≥ 50%
CC[C@]1(O)CC[C@@]2(C)C(CC[C@@H]3[C@@H]2CC[C@]2(C)C(c4cccnc4)=CC[C@@H]32)C1 (some centres not stated)	–	1 to 50 min	10 to 50%
C[C@]12CC[C@H](O)CC1=CC[C@@H]1[C@@H]2CC[C@]2(C)C(c3ccc(F)nc3)=CC[C@@H]12	–	1 to 50 min	10 to 50%
C[C@]12CC[C@H]3[C@@H](CC(F)[C@@]4(O)C[C@@H](O)CC[C@]34C)[C@@H]1CC=C2c1cccnc1 (some centres not stated)	≤ 11 nM	1 to 50 min	≥ 50%
C[C@]12CC[C@H](O)CC1=CC[C@@H]1[C@@H]2CC[C@]2(C)C(c3cccnc3F)=CC[C@@H]12	≤ 11 nM	1 to 50 min	≥ 50%
C[C@]12CCC(=O)C=C1C(=O)C[C@@H]1[C@@H]2CC[C@]2(C)C(c3cncc(F)c3)=CC[C@@H]12	≤ 11 nM	–	≥ 50%
C[C@]12CCC(=O)C=C1C(F)C[C@@H]1[C@@H]2CC[C@]2(C)C(c3cncc(F)c3)=CC[C@@H]12 (some centres not stated)	≤ 11 nM	1 to 50 min	≥ 50%
C[C@]12CCNC(=O)C=C1C(F)C[C@@H]1[C@@H]2CC[C@]2(C)C(c3cccnc3)=CC[C@@H]12 (some centres not stated)	≤ 11 nM	1 to 50 min	≥ 50%

Structure (SMILES)	IC50 [1]	half-life at 1 µM [2]	inhibition at 20 h [3]
C[C@]12CC[C@@H](NC(=O)C3CCC3)CC1=CC[C@@H]1[C@@H]2CC[C@]2(C)C(c3cccnc3)=CC[C@@H]12	≤ 11 nM	–	≥ 50%
C[C@]12CC[C@H]3[C@@H](CCC4=CC(=O)NCC[C@@]43C)C1=CC=C2c1cncc(C(F)F)c1	≤ 11 nM	–	≥ 50%
C[C@@]1(O)CC[C@@]2(C)C(=CC[C@@H]3[C@@H]2CC[C@]2(C)C(c4cncc(F)c4)=CC[C@@H]32)C1	–	≥ 50 min	≥ 50%
Cc1cncc(C2=CC[C@H]3[C@@H]4CC=C5C[C@H](NC(=O)C6CC6)CC[C@]5(C)[C@H]4CC[C@]23C)c1	≤ 11 nM	–	≥ 50%
C[C@]12CC[C@H]3[C@@H](CC(O)C45CC4CC[C@]35C)C1=CC=C2c1cccnc1 (some centres not stated)	≤ 11 nM	1 to 50 min	≥ 50%
C[C@]12CC[C@H]3[C@@H](CCC4CC(F)(F)CC[C@@]43C)C1=CC=C2c1cccnc1 (some centres not stated)	≤ 11 nM	–	–
C[C@]12CCC(F)(F)CC1CC[C@@H]1[C@@H]2CC[C@]2(C)C(c3cccnc3)=CC[C@@H]12 (some centres not stated)	≤ 11 nM	–	–
C[C@]12CC[C@H]3[C@@H](CCC4=CC(=O)CC[C@@]43C)C1=CC=C2c1cncc(N)c1	≤ 11 nM	–	–
CC(=O)N[C@@H]1CC[C@@]2(C)C(=CC[C@@H]3[C@@H]2CC[C@]2(C)C(c4cncc(C(F)(F)F)c4)=CC[C@@H]32)C1	–	1 to 50 min	10 to 50%
CC(=O)N[C@@H]1CC[C@@]2(C)C(=CC[C@@H]3[C@@H]2CC[C@]2(C)C(c4cncc(C(F)F)c4)=CC[C@@H]32)C1	≤ 11 nM	1 to 50 min	≥ 50%
CC(=O)O[C@H]1CC[C@@]2(C)C(=CC[C@H]3C4=CC=C(n5ccnc5)[C@@]4(C)CC[C@@H]32)C1	≤ 11 nM	–	–
CC1=C2CC[C@@H]3[C@H](CC[C@]4(C)C(c5cccnc5)=CC[C@@H]34)[C@@]2(C)CCC1O (some centres not stated)	≤ 11 nM	–	10 to 50%
CC1=C2CC[C@H]3C4=CC=C(c5cccnc5)[C@@]4(C)CC[C@@H]3[C@@]2(C)CCC1O (some centres not stated)	≤ 11 nM	–	–
C[C@]12CC[C@H](O)CC1=CC[C@@H]1[C@@H]2CC[C@]2(C)C(c3cncc(F)c3)=CC[C@@H]12	≤ 11 nM	≥ 50 min	≥ 50%
C[C@]1(O)CC[C@@]2(C)C(CC[C@@H]3[C@@H]2CC[C@]2(C)C(c4cccnc4)=CC[C@@H]32)C1 (some centres not stated)	≤ 11 nM	1 to 50 min	≥ 50%
CCNC(=O)N[C@@H]1CC[C@@]2(C)C(=CC[C@@H]3[C@@H]2CC[C@]2(C)C(c4cccnc4)=CC[C@@H]32)C1	–	1 to 50 min	≥ 50%
COc1cncc(C2=CC[C@H]3[C@@H]4CCC5C[C@@H](NC(C)=O)CC[C@]5(C)[C@H]4CC[C@]23C)c1 (some centres not stated)	–	1 to 50 min	≥ 50%
Cc1cncc(C2=CC=C3[C@@H]4CCC5CC(=O)NCC[C@]5(C)[C@H]4CC[C@]23C)c1 (some centres not stated)	≤ 11 nM	–	≥ 50%
CC1(C)C2=CC[C@H]3C4=CC=C(c5cccnc5)[C@@]4(C)CC[C@@H]3[C@@]2(C)CCC1O (some centres not stated)	–	1 to 50 min	10 to 50%
COC(=O)N[C@H]1CC[C@@]2(C)C(CC[C@H]3C4CC=C(c5cccnc5)[C@@]4(C)CC[C@@H]32)C1 (single isomer, unassigned)	–	1 to 50 min	≥ 50%
C[C@]12CC[C@@H](NC(=O)C3CC3)CC1CC[C@H]1C3CC=C(c4cccnc4)[C@@]3(C)CC[C@@H]12 (single isomer, unassigned)	≤ 11 nM	1 to 50 min	≥ 50%
CC(=O)NC1CC[C@@]2(C)C(CC[C@@H]3[C@@H]2CC[C@]2(C)C(c4cccnc4)=CC[C@@H]32)C1 (single isomer, unassigned)	≤ 11 nM	1 to 50 min	≥ 50%

— ChEMBL document CHEMBL3882724 (2013)
